Data on 2 molecules can be found in patent US11116713B2, “Oral care compositions and methods” (priority 2018, dated 2021).

The experiment deals with Streptococcus mutans. As to the kind of experiment: Killing efficacy against Streptococcus mutans in vitro (cfu count after treatment). Particulars: inoculum 2.71×10^4 cfu/ml, FIG. 1. The class given is cell-based. As for the experimental part:
Because the primary bacterium responsible for dental caries (cavities) is Streptococcus mutans, the killing efficacy of agmatine and EGCG, alone and in combination, was determined against Streptococcus mutans. Killing efficacy was measured in vitro using Streptococcus mutans cells grown in brain heart infusion (BHI) plates for at least 24-48 hours at 37° C. Each experiment was initiated by collecting an individual colony from the BHI plate and growning the colony overnight at 37° C. and 5% CO2 in BHI liquid media. Streptococcus mutans cells were then passaged 2 times in chemically defined media for Streptococcus mutans and grown overnight at 37° C. and 5% CO2. The absorbance at A600 of the culture was measured to determine the bacterial cell concentration of the inoculum. Once the desired bacterial concentration was reached, Streptococcus mutans inoculum was plated on cell culture plates previously prepared with a range of concentrations of EGCG alone, agmatine alone, or EGCG and agmatine in combination. The plates streaked with inoculum were incubated for at least 24 hours at 37° C. and 5% CO2. After incubation, the cells were transferred to sterile tubes, plated on BHI plate using an Autoplate 4000, and incubated for at least 36 hours at 37° C. Colonies were counted and colony forming units (cfu) were calculated as recommended by Autoplate 4000 guide. […]

In the case of `NCCCCN=C(N)N` [agmatine, (4-aminobutyl)guanidine], the “bacterial concentration of Streptococcus mutans following treatment” value (7.5 mg/ml agmatine alone) is given as 6.50×10^1 cfu/ml. In the case of `O=C(O[C@@H]1Cc2c(O)cc(O)cc2O[C@@H]1c1cc(O)c(O)c(O)c1)c1cc(O)c(O)c(O)c1` [EGCG, epigallocatechin gallate], for the setting “50 μg/ml EGCG alone”, the “bacterial concentration of Streptococcus mutans following treatment” value is reported as 6.00×10^1 cfu/ml.
